Data reported in ChEMBL document CHEMBL1142760, “Glycosidase inhibition by 1-glycosyl-4-phenyl triazoles” (Bioorg Med Chem Lett, 2005).

Assays:
[1] = biological target: T1, Alpha-galactosidase (Escherichia coli K-12) (UniProt P06720); experiment: Percent inhibition against Escherichia coli galactosidase at 0.24 mM; n>=3
T1 sequence (whole entry): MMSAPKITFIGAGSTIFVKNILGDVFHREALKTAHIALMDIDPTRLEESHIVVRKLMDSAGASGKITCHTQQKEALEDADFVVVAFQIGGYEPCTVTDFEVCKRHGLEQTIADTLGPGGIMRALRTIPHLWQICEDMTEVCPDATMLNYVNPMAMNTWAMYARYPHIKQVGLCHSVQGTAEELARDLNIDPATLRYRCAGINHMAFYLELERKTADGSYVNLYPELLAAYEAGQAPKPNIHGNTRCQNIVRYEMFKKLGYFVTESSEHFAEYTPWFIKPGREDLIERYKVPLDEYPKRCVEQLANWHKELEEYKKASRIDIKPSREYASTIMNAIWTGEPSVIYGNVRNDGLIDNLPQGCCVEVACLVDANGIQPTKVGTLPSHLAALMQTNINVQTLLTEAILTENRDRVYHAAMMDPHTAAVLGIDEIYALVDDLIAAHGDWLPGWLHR

[2] = biological target: T1, Alpha-galactosidase (Escherichia coli K-12); experiment: Percent inhibition against Escherichia coli galactosidase at 0.24 mM; n>=2

inhibition [1]	inhibition [2]	Structure (SMILES)
30%		OC[C@@H]1O[C@@H](n2cc(-c3ccccc3)nn2)[C@@H](O)[C@@H](O)[C@H]1O
	< 20%	OC[C@@H]1O[C@@H](n2cc(-c3ccccc3)nn2)[C@@H](O)[C@@H](O)[C@@H]1O
< 20%		OC[C@H]1NC[C@H](O)[C@@H](O)[C@@H]1O
